Reference: US6833248B2, “Human caspase-12 materials and methods” (Pharmacia & Upjohn Company, priority 2000, dated 2004)
Residues, ends and D or L forms follow the SMILES beside them. *: point of attachment. Cbz = O=C(OCc1ccccc1)*; CH2F = FC*

Tests used:
[1] = system: endogenous human caspase-12; experiment: Induction of endogenous caspase-12 protein by ER stress-inducing agents in SH-EP cells (Western blot); type: cell-based
Method: Reports in the literature indicated a strong activation of murine caspase-12 in response to agents which induce an endoplasmic reticulum (ER) stress response, such as tunicamycin or the Ca^2+ ionophore A23187. The activation of endogenous human caspase-12 by these ER stress-inducing agents in SH-EP and HEK293 cells was evaluated by Western blot analysis of cell lysates. SH-EP is a neuroblastoma cell line that endogenously expresses human caspase-12 at detectable levels. HEK293 is a transformed kidney cell line that lacks detectable caspase-12.
Cell cultures were treated with 1 μg/ml tunicamycin or 2 μM A23187 (Calbiochem) and harvested over time. Cells were lysed in detergent buffer, cellular proteins resolved on NuPAGE gels and subjected to Western blot analysis using the same antibody as in Example 8A above. […] (BACHEM) for 40 hours.
(§1) The biological significance of caspase-12 up-regulation by the ER stress-inducing agent A23187 in apoptosis was further investigated. SH-EP cells were treated with 2 μM A23187 for 40 hours to induce expression of endogenous caspase-12. One control culture was left untreated. Of the four cultures treated with A23187, one culture received 10 μg/ml cycloheximide (CHX) to block new protein synthesis and two cultures were subjected to an apoptotic stimulus, either 250 ng/ml α-Fas antibody for 24 hours or 1200 microjoules UV irradiation. The cultures were harvested after 6.5 hours. Western blot analysis of caspase-12 expression and activation was done as described above in Example 8A, using similar protein loads for each condition tested.

[2] = system: endogenous caspase-12; experiment: Caspase-12 cleavage/activation in SH-EP cells subjected to ER stress (Western blot); type: cell-based, human; details: 2 μM A23187 40 hours, harvested 6.5 hours after UV
Method: as §1
Additional experiments of were conducted to evaluate the effect of a caspase or calpain inhibitor on SH-EP cells subjected to ER stress. Z-VAD-fmk (Z=benzyloxycarbonyl group at the N-terminus of Val-Ala-DL-Asp(OMe)-fluoromethylketone; BACHEM) is a general caspase inhibitor that inhibits most of the known caspases, to varying extents. Calpeptin is an inhibitor of calpains, a family of calcium-dependent proteases that proteolyze a variety of cellular proteins. […] Caspase activation was evaluated by Western blot using antibodies to caspase-12 as described above in Example 8A. […]

[3] = system: caspase-3; experiment: Caspase-3 cleavage following UV irradiation in SH-EP cells subjected to ER stress (Western blot); type: cell-based; details: 2 μM A23187 40 hours
[4] = molecular target: T1, calpain II (Homo sapiens, UniProt P17655); experiment: Calpain II cleavage of human caspase-12 in vitro (Western blot); type: biochemical; details: affinity-purified protein, 0.012 U/μl calpain II activated by 5 mM CaCl2
T1 construct: purchased Calbiochem
T1 sequence (P17655 1-700): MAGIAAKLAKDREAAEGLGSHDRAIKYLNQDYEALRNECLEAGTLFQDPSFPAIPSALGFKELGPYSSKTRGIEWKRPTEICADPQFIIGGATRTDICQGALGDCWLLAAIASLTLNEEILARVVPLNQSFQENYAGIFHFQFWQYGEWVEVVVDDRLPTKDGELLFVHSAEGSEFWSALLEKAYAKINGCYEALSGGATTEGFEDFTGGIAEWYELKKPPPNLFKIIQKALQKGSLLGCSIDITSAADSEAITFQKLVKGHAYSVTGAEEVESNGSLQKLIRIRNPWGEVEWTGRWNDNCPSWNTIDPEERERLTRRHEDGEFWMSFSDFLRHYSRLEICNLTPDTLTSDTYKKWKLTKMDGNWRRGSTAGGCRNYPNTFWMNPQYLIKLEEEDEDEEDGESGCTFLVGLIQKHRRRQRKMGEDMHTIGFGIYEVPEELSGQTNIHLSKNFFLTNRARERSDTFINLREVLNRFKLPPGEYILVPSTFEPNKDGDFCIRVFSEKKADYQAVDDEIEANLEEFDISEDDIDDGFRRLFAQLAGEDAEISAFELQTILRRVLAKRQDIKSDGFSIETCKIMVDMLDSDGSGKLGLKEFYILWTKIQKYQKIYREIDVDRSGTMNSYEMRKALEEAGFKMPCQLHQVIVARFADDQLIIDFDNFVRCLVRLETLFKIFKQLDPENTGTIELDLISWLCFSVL
T1 sequence (P04632 1-268 partner): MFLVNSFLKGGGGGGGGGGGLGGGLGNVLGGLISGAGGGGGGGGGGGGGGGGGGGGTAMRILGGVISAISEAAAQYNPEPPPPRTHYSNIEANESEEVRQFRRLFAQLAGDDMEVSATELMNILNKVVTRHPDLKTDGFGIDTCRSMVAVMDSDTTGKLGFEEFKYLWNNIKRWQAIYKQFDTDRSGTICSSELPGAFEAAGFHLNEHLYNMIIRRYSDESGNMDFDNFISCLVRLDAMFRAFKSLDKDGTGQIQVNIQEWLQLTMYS
Method: The relationship between calpain and caspase-12 was explored in vitro as follows. Affinity-purified hCaspase-12 and ΔCARD caspase-12 prepared as described in Example 3B above, were incubated with 0.012 U/μl calpain II (Calbiochem) in solutions containing 150 mM NaCl, 20 mM Tris-HCl, pH 7.5, and 1 mM DTT. Calpain II was activated by the addition of 5 mM CaCl2, while corresponding control cultures were not activated by addition of calcium. Cleavage of human caspase-12 was evaluated by Western blot analysis as described in Example 8A above. […] Thus, the activation and processing of caspase-12 is closely tied to cellular calcium levels. It is anticipated that calpain will process caspase-12 by recognizing the cleavage site “ASADT” at positions 269-272 of hCaspase-12 (SEQ ID NO: 77), with cleavage occurring between residues 271 and 272. Because cellular calcium is an important regulatory feature in health and disease, the signaling pathway to caspase-12 may have multiple branches that can result in activation of this caspase.

[5] = system: procaspase-3; experiment: Proteolytic activity using procaspase-3 substrate (Western blot); type: biochemical; details: partially purified preparation, 2 hours at 37° C.; antibody to full-length caspase-3
Method: Lysates which contain recombinant caspases produced by expression in E. coli often contain fragments indicative of autoprocessing. Because the autolysis in caspase-12 lysates observed in Example 3B above is indicative of enzymatic activity, the enzymatic activity of partially purified human caspase-12 lysates was evaluated using procaspase-3 as a potential substrate. Caspase-3 is an effector caspase, which is cleaved at Asp175 by initiator caspases-8 and -9 to give the mature 19 kDa and 11 kDa subunits of the active enzyme. Processing of procaspase-3 was evaluated by Western blot analysis using an antibody that binds to full-length caspase-3 and another antibody that binds to the larger B subunit and that is specific for activated enzyme.
For use as a substrate for caspase-12, procaspase-3 was immunoprecipitated from SH-EP cell lysates using an antibody to full-length caspase-3 (Upstate Biotechnology, Inc.) and isolated on Protein G-Plus/Protein A agarose (Oncogene Science). […] Caspase-3 processing/activation by caspase-12 was detected by incubating with an anti-caspase-3 antibody (Upstate Biotechnology) which recognizes all subunits of caspase-3. Following incubation with an anti-rabbit HRP-conjugated antibody (Santa Cruz Biotechnology), immunoreactivity was detected by chemiluminescence using SuperSignal West PICO reagent (Pierce). […]

[6] = system: SH-EP cells; experiment: Cleavage of exogenous hCaspase-12 in transfected SH-EP cells after αFas-antibody induction of the extrinsic cell death pathway (Western blot); type: cell-based; details: 250 ng/ml αFas-antibody for 18 hours
Method: The role of hCaspase-12 in cell death pathways was examined using cells of a neuroblastoma cell line, SH-EP. In the extrinsic (or receptor-induced) cell death pathway, caspase-8 is the apical caspase that cleaves effector caspases such as caspase-3, which cleaves many cellular substrates. Caspase activation, indicated by cleavage of the proform of the enzyme in cell lysates, was evaluated by Western blot analysis.
The expression vector pIRES-hrGFP-1a harboring the hCaspase-12 or RIK-5 gene was transfected into SH-EP cells using Superfect transfection reagent (Qiagen). At 24 hours post-transfection, 250 ng/ml αFas-antibody (CH-11, Upstate Biotechnology) was added and incubated for 18 hours to induce the extrinsic cell death pathway. Culture medium and cells were harvested and lysed in detergent buffer. Cleavage of exogenous hCaspase-12 was evaluated by Western blot analysis using anti-human caspase-12 antibody (prepared against peptide WSHHLEEIFQKVQHSFE as described in Example 4).

[7] = system: DEVD-R110; experiment: Homogeneous Caspase Assay, fluorimetric, release of rhodamine-110 from DEVD-R110; type: biochemical; details: partially purified protein preparation; two-hour incubation of DEVD-R110 substrate
Text: The enzymatic activity of the partially purified hCaspase-12 and ΔCARD proteins was further evaluated in a fluorimetric assay allowing quantitation. The caspase activity of partially purified hCaspase-12 and ΔCARD protein preparations was compared to a control (non-caspase protein) preparation, using the Homogeneous Caspase Assay (Roche Biochemicals) according to the manufacturer's protocol. The assay measures the amount of free rhodamine-110, following its release from the substrate DEVD-R110, a caspase recognition sequence. Following a two-hour incubation of DEVD-R110 substrate with dilutions of the various protein preparations, free rhodamine-110 was quantitated fluorimetrically. Measured fluorescence intensity (RFU) for each preparation was 807 for hCaspase-12, 445 for ΔCARD, and 31 for the control.

CNc1ccc2oc(C[C@H]3O[C@@]4(CC[C@H]3C)O[C@H]([C@H](C)C(=O)c3ccc[nH]3)[C@H](C)C[C@H]4C)nc2c1C(=O)O [A23187]
Induction of caspase-12 protein ([1]; SH-EP cells, 2 μM A23187, harvested over time): strong induction | Expression of caspase-12 ([1]; SH-EP cells, 2 μM A23187 for 40 hours): induced

COC(=O)C[C@H](NC(=O)[C@H](C)NC(=O)[C@@H](NC(=O)OCc1ccccc1)C(C)C)C(=O)CF [Z-VAD-fmk] (Cbz-Val-Ala-Asp(OMe)-CH2F)
Cleavage of pro-caspase-12 after UV irradiation ([2]; pre-incubated with 50 μM Z-VAD-fmk 1 hour prior to UV): reduces cleavage | Cleavage of caspase-3 following UV irradiation ([3]; 50 μM Z-VAD-fmk): inhibited

CCCC[C@@H](C=O)NC(=O)[C@H](CC(C)C)NC(=O)OCc1ccccc1 [calpeptin]
Cleavage of procaspase-12 after UV irradiation ([2]; pre-incubated with 10 μM calpeptin 1 hour prior to UV): reduced | Cleavage of caspase-3 following UV irradiation ([3]; 10 μM calpeptin): not affected

C[C@@H]1C[C@@H]([C@H](O)CC2CC(=O)NC(=O)C2)C(=O)[C@@H](C)C1 [cycloheximide]
A23187-induced expression of caspase-12 ([1]; SH-EP cells, 2 μM A23187 for 40 hours plus 10 μg/ml cycloheximide): inhibited

β-amyloid [25-35]: β-amyloid [25-35] (BACHEM) (GSNKGAIIGLM; Amyloid-beta protein 42; UniProt P05067 696-706, looked up, fragment)
Induction of human caspase-12 ([1]; cultures treated with 40 μM β-amyloid [25-35] for 40 hours): induction of human caspase-12 was observed

B1: hCaspase-12: non-naturally occurring variant human caspase-12 with Ser-205 to Gly mutation (SEQ ID NO: 77), expressed as 6-His fusion protein (protein, listed as Homo sapiens)
chain: MADEKPSNGVLVHMVKLLIKTFLDGIFDDLMENNVLNTDEIHLIGKCLKFVVSNAENLVDDITETAQIAGKIFREHLWNSKKQLSSALLEIQGAQPSGKLKLCPHAHFHELKTKRADEIYPVMEKERRTCLALNIRNKEFNYLHNRNGSELDLLGMRDLLENLGYSVVIKENLTAQEMETALRQFAAHPEHQSSDSTFLVFMSHGILNGICGTKHWDQEPDVLHDDTIFEIFNNRNCQSLKDKPKVIIMQACRGNGAGIVWFTTDSGKASADTHGRLLQGNICNDAVTKAHVEKDFIAFKSSTPHNVSWRHETNGSVFISQIIYYFREYSWSHHLEEIFQKVQHSFETPNILTQLPTIERLSMTRYFYLFPGN
modifications: 6-His tag
Cleavage by calpain II [4]: cleaves | Processing of procaspase-3 to mature subunits [5]: lower molecular weight bands indicative of cleaved mature subunits were observed | Cleavage of exogenous protein in cultures undergoing apoptosis [6]: cleaved | Measured fluorescence intensity (RFU), free rhodamine-110 [7]: 807 RFU
